Kd data for 1 molecule are collected here from publication PMC5343402, “Gossypol has anti-cancer effects by dual-targeting MDM2 and VEGF in human breast cancer” (Breast Cancer Research : BCR, 2017).

For this assay, the target named is T1, MDM2 (RING protein) (Homo sapiens, UniProt Q00987).
T1 construct: MDM2 RING protein
Kind of assay: isothermal titration calorimetry (auto-iTC200, one-site fit). In kind it is binding. In general terms: In ITC the heat of successive injections is recorded.

Usually Kd stands for the free concentration of one partner at which half of the binding sites on the other are occupied at equilibrium, for simple one-to-one binding. Lower therefore signals higher affinity.

Each structure is given as a SMILES string.

T1 sequence (Q00987 whole entry): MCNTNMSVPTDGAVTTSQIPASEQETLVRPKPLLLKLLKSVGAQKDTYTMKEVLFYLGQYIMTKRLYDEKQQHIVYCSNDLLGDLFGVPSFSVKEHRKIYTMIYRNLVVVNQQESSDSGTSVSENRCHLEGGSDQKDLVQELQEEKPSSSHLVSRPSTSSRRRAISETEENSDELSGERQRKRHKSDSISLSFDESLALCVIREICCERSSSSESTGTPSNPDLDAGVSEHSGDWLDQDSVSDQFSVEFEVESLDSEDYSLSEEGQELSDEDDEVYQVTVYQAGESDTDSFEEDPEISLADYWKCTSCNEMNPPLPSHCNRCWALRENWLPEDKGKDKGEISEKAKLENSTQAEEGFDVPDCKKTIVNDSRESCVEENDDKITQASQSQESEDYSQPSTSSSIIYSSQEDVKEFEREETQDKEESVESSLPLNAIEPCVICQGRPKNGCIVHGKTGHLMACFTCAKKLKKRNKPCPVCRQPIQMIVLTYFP

Molecule `Cc1cc2c(C(C)C)c(O)c(O)c(C=O)c2c(O)c1-c1c(C)cc2c(C(C)C)c(O)c(O)c(C=O)c2c1O` [MX11, gossypol] showed a dissociation constant Kd of 5.21 µM.
